Laboratory results from article PMC12494831, “Discovery of new pyridine 3-carboxylic acid-based pharmacophores as dual anti-inflammatory and anti-hyperglycemic agents” (Scientific Reports, 2025).

Legend:
α-amylase (EC.3.2.1.1) = biological target: T1, α-amylase (EC.3.2.1.1) (Homo sapiens, UniProt P04746); experiment: In vitro α-amylase inhibition (starch/DNS, 540 nm); assay type: biochemical; details: for IC50: test concentrations 2-10 µg, read-out: α-Amylase IC50±SD (converted)
T1 sequence (P04746 16-511): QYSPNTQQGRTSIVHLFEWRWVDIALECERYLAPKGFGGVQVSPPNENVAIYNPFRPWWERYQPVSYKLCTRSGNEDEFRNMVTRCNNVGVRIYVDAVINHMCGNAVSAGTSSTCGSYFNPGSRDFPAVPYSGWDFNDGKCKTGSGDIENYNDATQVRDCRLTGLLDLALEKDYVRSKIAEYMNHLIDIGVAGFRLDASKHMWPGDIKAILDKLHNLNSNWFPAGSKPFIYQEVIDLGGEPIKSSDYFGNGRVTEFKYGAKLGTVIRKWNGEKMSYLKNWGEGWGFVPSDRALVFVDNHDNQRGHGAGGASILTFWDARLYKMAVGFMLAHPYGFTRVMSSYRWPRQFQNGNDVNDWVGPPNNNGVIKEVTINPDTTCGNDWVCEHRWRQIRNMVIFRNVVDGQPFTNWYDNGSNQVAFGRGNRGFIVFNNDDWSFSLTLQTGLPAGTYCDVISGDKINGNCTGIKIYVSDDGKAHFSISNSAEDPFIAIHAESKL
Protocol: α-Amylase enzyme and other chemical reagents are used for enzyme inhibitory activity. The characterized compounds are diluted in an analytical grad solvent (DMSO) system at 1 mg/mL solution concentration. The activity reaction of the synthesized analogues on the enzyme was treated at final concentrations of 2 to 10 µg. In the interaction between enzyme and compounds, 10 min incubation was maintained before the inhibitory activity started. The enzyme-receptor inhibition efficiency was calculated and compared with the positive control.
Sodium phosphate buffer 0.2 mM (pH 6.9 with 6 × 10^− 4 M NaCl) in 500 µL enzyme solution (0.5 mg/mL) was taken and incubated with test samples (2–10 µg/mL) at room temperature for 10 min. A starch (1%) solution of 500 µL with phosphate buffer was added to all test inhibitor samples; further, the tubes were incubated for 10 min at 28 °C. The reaction test tubes were incubated for another 5 min in the water bath (100 °C) after the addition of the color reagent dinitro salicylic acid and cooled at room temperature until reached. Finally, 10 mL of distilled water was mixed with each test tube, and the colored mixture was measured at a fixed wavelength of 540 nm. The absorbance without sample solution (blank) and control (buffer and standard drug sample) was measured at 540 nm. The α-amylase inhibition efficiency was validated using the following equation:2 [drawing 2]

[1] = ABTS cation radical scavenging (734 nm); details: for IC50: read-out: ABTS IC50±SD
Protocol: (§1) The experimental method principle relies on the degradation of the purple color of the DPPH radical and the blue color reduction of the ABTS cation radical. This is due to consuming the electron or hydrogen radical from the antioxidant (A-H). Both assays were measured at 517 nm and 734 nm, respectively. The distinction of color changes illustrates the potential scavenging activity of the inhibitor molecules in terms of hydrogen-donating proficiency. From this, we can conclude the anti-oxidant efficacy.
In brief, 7.0 mM ABTS in H2O and 2.5 mM potassium persulfate (1:1) were shaken well to generate ABTS cation radicals and kept in the dark at RT for 15–20 h before it is used for the experiment. After, the radical was mixed with the synthesized molecules at different concentrations (20 µM to 100 µM). The resultant solution was measured for absorbance at 734 nm. Ascorbic acid is the positive control for this experiment.1 [drawing 1]

[2] = DPPH radical scavenging (517 nm); details: for IC50: read-out: DPPH IC50±SD
Protocol: as §1
Methanolic DPPH solution (0.15 mM) was prepared, and 1.0 mL of DPPH solution was mixed with 3.0 mL of synthesized molecules at different concentrations (20 µM to 100 µM). The mixture was constantly swirled and stored RT for 30 min, followed by absorbance measurement at 517 nm.

human RBC = experiment: Anti-inflammatory activity: hypotonic solution-induced human RBC hemolysis (560 nm); assay type: cell-based; details: for IC50: induced human RBC hemolysis, read-out: Inflammatory IC50±SD
Protocol: All synthesized compounds are validated in human RBC (blood sample); the blood sample was collected from a healthy volunteer in an EDTA tube. The EDTA tube further proceeded with centrifugation at 3000 rpm for 30 min. A supernatant (which contains plasma and leucocytes) solution was isolated, and the obtained RBC (red blood cells) was further treated with Alsever’s reagent. Alsever’s reagent was prepared as follows: sodium citrate (0.8 g, 2.6 mmol), dextrose (2 g, 11.0 mmol), citric acid (0.050 g, […]), and sodium chloride (0.42 g, 7.0 mmol) were solubilized in 100 mL of distilled water. The above mixture was centrifuged for 30 min at 3000 rpm. Then, colloidal blood cells were separated, carefully transferred, and washed with 0.85% of the isosaline solution; this process continued until a clear solution appeared. Employing coagulated RBC and generated human erythrocyte hemolysis, the anti-inflammatory activity and potential of the synthesized entities were evaluated. The tested compounds are prepared at different concentrations for the inhibition activity of inflammation, along with 100 µL of a purified RBC sample utilized. All characterized samples were followed by adding 5.0 mL of trisodium phosphate (10 mM) and 5.0 mL of sodium chloride (5.0 mM) buffer solutions. After the addition of the above mixtures, the test samples are incubated for 15 min at room temperature with RBC and hypotonic mixtures. After incubation, the mixture was centrifuged at 3000 rpm for 15 min. The final supernatant liquid solution was measured at 560 nm using a UV-visible spectrophotometer.3 [drawing 3]

α-Amylase Inhibition % (α-amylase (EC.3.2.1.1); 2 µg) [%]	α-Amylase Inhibition % (α-amylase (EC.3.2.1.1); 4 µg) [%]	IC50 [1] [µM]	IC50 [2] [µM]	Structure (SMILES)	ABTS Inhibition % ([1]; 20 µM) [%]	ABTS Inhibition % ([1]; 40 µM) [%]	ABTS Inhibition % ([1]; 60 µM) [%]	ABTS Inhibition % ([1]; 80 µM) [%]	ABTS Inhibition % ([1]; 100 µM) [%]	DPPH Inhibition % ([2]; 20 µM) [%]	DPPH Inhibition % ([2]; 40 µM) [%]	DPPH Inhibition % ([2]; 60 µM) [%]	DPPH Inhibition % ([2]; 80 µM) [%]	DPPH Inhibition % ([2]; 100 µM) [%]	inhibition at 20 µM (human RBC) [%]	inhibition at 40 µM (human RBC) [%]	inhibition at 60 µM (human RBC) [%]	inhibition at 80 µM (human RBC) [%]	inhibition at 100 µM (human RBC) [%]	IC50 (human RBC) [µM]	other results
85.59	83.98	–	–	C[C@H]1O[C@H](O[C@H]2[C@H](O)[C@@H](O)[C@@H](O[C@H]3[C@H](O)[C@@H](O)C(O)O[C@@H]3CO)O[C@@H]2CO)[C@H](O)[C@@H](O)[C@@H]1N[C@H]1C=C(CO)[C@@H](O)[C@H](O)[C@H]1O (some centres unmarked) [Acarbose, reference compound]	–	–	–	–	–	–	–	–	–	–	–	–	–	–	–	–	α-Amylase Inhibition % (α-amylase (EC.3.2.1.1); 6 µg): 82.19%; α-Amylase Inhibition % (α-amylase (EC.3.2.1.1); 8 µg): 80.97%; α-Amylase Inhibition % (α-amylase (EC.3.2.1.1); 10 µg): 80.38%
–	–	11.9 ± 0.01	11.81 ± 0.04	O=C1O[C@H]([C@@H](O)CO)C(O)=C1O [Ascorbic acid, reference compound]	90	93	95	96	96.5	91	91.8	93.7	94.3	96.1	–	–	–	–	–	–	–
–	–	21.57 ± 0.11	32.02 ± 0.26	COC(=O)C=Cc1cc(OC)c(OC(=O)c2cccnc2)c(OC)c1 [Compound 2d, 2,6-dimethoxy-4-(3-methoxy-3-oxoprop-1-en-1-yl)phenyl nicotinate]	56.9	59.6	62.5	62.6	63.2	36.2	56.3	80.5	87.4	88.3	59	62	65.4	75.2	84.4	20.2 ± 0.26	–
79.2	77.89	81.05 ± 0.22	78.05 ± 0.08	COC(=O)C=Cc1cccc(OC(=O)c2cccnc2)c1 [Compound 2f, 3-(3-Methoxy-3-oxoprop-1-en-1-yl)-phenyl nicotinate]	27.6	33.8	41.5	52	60.1	35.31	38.4	41.11	43.18	45.7	31	37	42	45.6	49	65.24 ± 0.18	α-Amylase Inhibition % (α-amylase (EC.3.2.1.1); 6 µg): 56.22%; α-Amylase Inhibition % (α-amylase (EC.3.2.1.1); 8 µg): 47.87%; α-Amylase Inhibition % (α-amylase (EC.3.2.1.1); 10 µg): 36.74%; IC50 (α-amylase (EC.3.2.1.1)): 4.71 µM
80.38	73.64	21.85 ± 0.21	81.81 ± 0.01	COC(=O)C=Cc1ccccc1OC(=O)c1cccnc1 [Compound 2g, 2-(3-Methoxy-3-oxoprop-1-en-1-yl)phenyl nicotinate]	56	57	58.1	60.2	62	34.94	44.35	46.41	50.02	61.07	79	80.2	80.3	85.6	86	85.56 ± 0.25	α-Amylase Inhibition % (α-amylase (EC.3.2.1.1); 6 µg): 73.06%; α-Amylase Inhibition % (α-amylase (EC.3.2.1.1); 8 µg): 40.84%; α-Amylase Inhibition % (α-amylase (EC.3.2.1.1); 10 µg): 29.72%; IC50 (α-amylase (EC.3.2.1.1)): 4.79 µM
74.08	73.2	16.4 ± 0.25	12.9 ± 0.19	O=C(Oc1ccc2c(c1)OCO2)c1cccnc1 [Compound 2h, Benzo[1,3]dioxol-5-yl nicotinate]	69	71	72	72.9	76.7	84.5	85.8	86.8	87.2	87.68	52	63	64.7	65	70	21.7 ± 0.24	α-Amylase Inhibition % (α-amylase (EC.3.2.1.1); 6 µg): 72.47%; α-Amylase Inhibition % (α-amylase (EC.3.2.1.1); 8 µg): 70.57%; α-Amylase Inhibition % (α-amylase (EC.3.2.1.1); 10 µg): 70.13%; IC50 (α-amylase (EC.3.2.1.1)): 6.23 µM
77.74	76.42	38.43 ± 0.21	99.62 ± 0.15	COc1cc(C(C)=O)ccc1OC(=O)c1cccnc1 [Compound 2i, 4-Acetyl-2-methoxyphenyl nicotinate]	41.6	44.7	49.5	53.9	60.4	8.89	33.34	40.65	49.83	52.22	17.6	25.3	47	58	70	66.97 ± 0.28	α-Amylase Inhibition % (α-amylase (EC.3.2.1.1); 6 µg): 74.67%; α-Amylase Inhibition % (α-amylase (EC.3.2.1.1); 8 µg): 71.01%; α-Amylase Inhibition % (α-amylase (EC.3.2.1.1); 10 µg): 70.86%; IC50 (α-amylase (EC.3.2.1.1)): 5.25 µM
85.94	75.4	57.25 ± 0.11	97.62 ± 0.24	O=C(Nc1ccc2c(c1)OCO2)c1cccnc1 [Compound 2j, N-(Benzo[1,3]dioxol-5-yl)nicotinamide]	28.3	39	42.4	45	47.9	34.8	37.7	43.7	46	50.1	59	68	75	92.7	93	20.3 ± 0.22	α-Amylase Inhibition % (α-amylase (EC.3.2.1.1); 6 µg): 74.67%; α-Amylase Inhibition % (α-amylase (EC.3.2.1.1); 8 µg): 68.96%; α-Amylase Inhibition % (α-amylase (EC.3.2.1.1); 10 µg): 57.1%; IC50 (α-amylase (EC.3.2.1.1)): 5.47 µM
–	–	–	–	O=C(c1ccccc1)c1ccc2n1CCC2C(=O)O (centres unmarked) [Ketorolac, reference compound]	–	–	–	–	–	–	–	–	–	–	91	92	93	93.5	94	11.8 ± 0.17	–
